Experimental data reported in the supplement of paper PMC10307832.

Experiments:
Experiment in all cases: relative viability (nuclei count vs DMSO), 5 days (fraction); higher = more cells survive
Sulindac + Luminespib = compound: CC1=C(CC(=O)O)c2cc(F)ccc2/C1=C\c1ccc([S+](C)[O-])cc1 [Sulindac] + CCNC(=O)c1noc(-c2cc(C(C)C)c(O)cc2O)c1-c1ccc(CN2CCOCC2)cc1 [Luminespib] (partner 0.01 µM)
How it was run: (§1)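 Lung cancer cell lines, seeded in 1536-well plates, were treated the following day by pin tool with a single drug or with five library-drug doses (not always all listed) in √10 steps on top of a fixed anchor-drug dose. Cells were fixed and nuclei stained in one step after 5 days, and nuclei were counted. Relative viability is the nuclei count for treated wells divided by that for vehicle wells, reported as medians of duplicate plates.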

[1] = compound: O=c1[nH]cc(F)c(=O)[nH]1 [5-Fluorouracil] + CS(=O)(=O)N1CCN(Cc2cc3nc(-c4cccc5[nH]ncc45)nc(N4CCOCC4)c3s2)CC1 [Pictilisib] (partner 1 µM)
How it was run: as §1

Sulindac + AZD7762 = compound: CC1=C(CC(=O)O)c2cc(F)ccc2/C1=C\c1ccc([S+](C)[O-])cc1 [Sulindac] + NC(=O)Nc1cc(-c2cccc(F)c2)sc1C(=O)N[C@H]1CCCNC1 [AZD7762] (partner 0.2 µM)
How it was run: as §1

Sulindac + Lapatinib = compound: CC1=C(CC(=O)O)c2cc(F)ccc2/C1=C\c1ccc([S+](C)[O-])cc1 [Sulindac] + CS(=O)(=O)CCNCc1ccc(-c2ccc3ncnc(Nc4ccc(OCc5cccc(F)c5)c(Cl)c4)c3c2)o1 [Lapatinib] (partner 2 µM)
How it was run: as §1

| Cell Line | relative viability (Sulindac + Luminespib; first compound 0.08 µM) | relative viability (Sulindac + Luminespib; first compound 0.253 µM) | relative viability (Sulindac + Luminespib; first compound 0.8 µM) | relative viability (Sulindac + Luminespib; first compound 2.53 µM) | relative viability (Sulindac + Luminespib; first compound 8 µM) | relative viability ([1]; first compound 0.02 µM) | relative viability ([1]; first compound 0.2 µM) | relative viability ([1]; first compound 0.6325 µM) | relative viability ([1]; first compound 2 µM) | relative viability (Sulindac + AZD7762; first compound 0.08 µM) | relative viability (Sulindac + AZD7762; first compound 0.253 µM) | relative viability (Sulindac + AZD7762; first compound 0.8 µM) | relative viability (Sulindac + AZD7762; first compound 2.53 µM) | relative viability (Sulindac + AZD7762; first compound 8 µM) | relative viability (Sulindac + Lapatinib; first compound 0.08 µM) | relative viability (Sulindac + Lapatinib; first compound 0.253 µM) | relative viability (Sulindac + Lapatinib; first compound 2.53 µM) | relative viability (Sulindac + Lapatinib; first compound 8 µM) | relative viability (Sulindac + Lapatinib; first compound 0.8 µM) |
| --- | --- | --- | --- | --- | --- | --- | --- | --- | --- | --- | --- | --- | --- | --- | --- | --- | --- | --- | --- |
| NCI-H1975 | 0.189 | 0.205 | 0.159 | 0.174 | 0.267 | 0.309 | 0.308 | 0.262 | 0.217 | 0.868 | 0.715 | 0.699 | 0.695 | 0.819 | 1.27 | 1.03 | 0.952 | 1.01 | – |
| NCI-H2023 | 0.923 | 0.845 | – | 0.649 | 0.92 | 0.283 | 0.164 | 0.0894 | 0.0821 | – | – | – | – | – | 0.708 | 0.733 | 0.774 | 1.09 | 0.741 |
| ChaGo-K-1 | 0.526 | 0.584 | 0.637 | 0.587 | 0.405 | 0.747 | 0.919 | 0.48 | 0.645 | 0.949 | 0.878 | 0.803 | 0.932 | 0.906 | – | – | – | – | – |
| COR-L 105 | 0.677 | 0.66 | 0.724 | 0.793 | 0.792 | 0.473 | 0.458 | 0.4 | 0.391 | – | – | – | – | – | 0.348 | 0.34 | 0.324 | 0.412 | 0.408 |
| NCI-H2170 | 0.782 | 0.755 | 0.941 | 0.671 | 0.627 | 0.354 | 0.338 | 0.314 | 0.285 | 1.06 | 0.91 | 0.765 | 1.01 | 0.884 | 0.249 | 0.282 | 0.272 | 0.286 | 0.251 |
| A549 | – | – | – | – | – | 0.578 | 0.474 | 0.21 | 0.12 | – | – | – | – | – | 1.12 | 0.975 | 1.04 | 1.22 | 0.995 |
| NCI-H460 | 0.0451 | 0.0347 | 0.0378 | 0.0255 | 0.0267 | 0.443 | 0.384 | 0.155 | 0.0868 | 0.984 | 0.639 | 0.812 | 0.64 | 0.846 | 1.97 | 1.38 | 1.12 | 1.19 | – |
| NCI-H1993 | 0.718 | 0.774 | 0.645 | 0.961 | 0.988 | 0.793 | 0.657 | 0.661 | 0.779 | 0.717 | 0.854 | 0.606 | 0.695 | 0.854 | 0.837 | 0.801 | 0.77 | 0.805 | 0.757 |
| Calu-6 | – | – | – | – | – | 1.08 | 0.948 | 0.836 | 0.485 | – | – | – | – | – | 1.29 | 1.04 | 1.25 | 1.3 | 1.09 |
| SW 900 | – | 0.176 | – | 0.156 | 0.173 | – | – | – | – | 0.538 | 0.677 | – | – | 0.643 | – | – | – | – | – |
| NCI-H1623 | 0.424 | 0.459 | 0.51 | 0.462 | 0.507 | – | – | – | – | – | – | – | – | – | – | – | – | – | – |
| NCI-H322M | 0.887 | 0.819 | 0.644 | 0.848 | 0.881 | 0.564 | 0.536 | 0.529 | 0.427 | 0.469 | 0.42 | 0.573 | 0.575 | 0.546 | 0.632 | 0.626 | 0.565 | 0.561 | 0.523 |
